System: porcine trachea CFTR−/−
Test: μOCT imaging of airway epithelial function in porcine trachea, CFTR-/- animals
Conditions: sequential ivacaftor 10 μM, forskolin 100 nM, acetylcholine 100 μM in bath, 37° C. (FIG. 7G)
Description: FIGS. 7A-7H show the effects of CFTR activators on airway epithelial function in intact porcine trachea by μOCT. FIGS. 7A-7B show representative μOCT images for a CFTR−/− (FIG. 7A) and CFTR+/+ (FIG. 7B) animal. FIGS. 7C-7F, respectively, show ASL depth (FIG. 7C), PCL depth (FIG. 7D), CBF (FIG. 7E) and MCT (FIG. 7F) measurements derived from μOCT images from CFTR−/− and CFTR+/+ animals. FIGS. 7G and 7H show the response of epithelial functional parameters, namely ASL depth and MCT in CFTR−/− (FIG. 7G) and CFTR+/+(FIG. 7H) animals in response to sequential pharmacologic intervention by ivacaftor (10 μM), forskolin (100 nM) and acetylcholine (100 μM).
To further investigate the role of CFTR activators in modulating airway epithelial cell function, CFTR activators were studied in combination with porcine trachea. In this example, porcine trachea from animals having a mutated CFTR (CFTR (−/−) and from animals having a WT-CFTR (CFTR+/+) were evaluated for ASL depth, PCL depth, CBF and MCT. The results are shown in FIGS. 7A-7H.
FIGS. 7G and 7H show the response of epithelial functional parameters, namely ASL depth, CBF and MCT in CFTR−/− and CFTR+/+ animals in response to sequential pharmacologic intervention by ivacaftor (10 μM), forskolin (100 nM) and acetylcholine (100 μM); in this experiment, acetylcholine served as a positive control to induce glandular extrusion in CF tissue). In these experiments, agonists were added to the bath solution and all experiments were conducted under physiological conditions (37° C. and 100% humidity). […] In contrast to FIG. 7G, ASL depth, CBF and MCT were all increased in response to ivacaftor treatment in CFTR+/+ animals, consistent with the results described above for human tissue.
Normal piglet tracheas were obtained from Exemplar Genetics (Sioux Center, Iowa). Tissue were dissected from one-day-old piglets and shipped on wet ice in DMEM. A modified protocol based on airway tissue handling and preparation methods developed by Ballard et al. (Am J Physiol Lung Cell Mol Physiol 298: L270-276, 2010) was employed. Tracheas were immersed in 80 mL Ringer bicarbonate solution (KRB) baths at room temperature and slowly warmed to 37° C. After four hours of pretreatment, the tracheas were removed from the KRB. Accessible mucus and liquid were aspirated from the airway lumens and the tracheal ends were cannulated so that the serosal surface was bathed in KRB [29] without contacting the mucosal surface, as previously described (Ballard et al., Am J Physiol Lung Cell Mol Physiol 298: L270-276, 2010; Martens, et al., Am J Physiol Lung Cell Mol Physiol 301: L236-246, 2011). Tracheas were allowed to equilibrate in KRB bubbled with 95% 02 and 5% CO2 at 37° C. and the luminal side exposed to conditioned air at 100% humidity for 2 hours prior to mOCT imaging (Sleigh et al., Comp Biochem Physiol A Comp Physiol 94: 359-364, 1989).
The μOCT system is a spectral-domain OCT implementation with several improvements to standard OCT that yield high resolution in both lateral and axial directions. The general layout and axial resolution characterization have been described (Liu et al., PLOSOne, 8(1), E54473-2013). A super-continuum source (Fianium SC450) provides the high-bandwidth, short coherence length light necessary for high axial resolution ([…]). A typical OCT system includes an interferometer with the reference and sample arms intersecting at a beamsplitter. The beamsplitter is replaced in μOCT with a 45 degree rod mirror, which apodizes the sample beam by introducing a circular obscuration in the center to achieve a balance of good lateral resolution (2 μm) and long depth of focus (0.2 mm). Custom software is employed to control the galvanometer scanning motors while acquiring spectral data from the line camera. […]

C=C[C@@]1(C)CC(=O)[C@]2(O)[C@@]3(C)[C@@H](O)CCC(C)(C)[C@@H]3[C@H](O)[C@H](OC(C)=O)[C@@]2(C)O1 [forskolin]
no response: ASL depth response | CBF response | MCT response

— patent US10300052B2, “Methods for increasing CFTR activity” (THE UAB RESEARCH FOUNDATION, priority 2012, dated 2019)
